According to US5972998A, “Triptolide derivatives useful in the treatment of autoimmune diseases” (priority 1998, dated 1999):
≈ marks a conversion by molar mass, not a printed value. Where two headings read alike, the source gives them in different places.

What was measured:
[1] = system: Jurkat E6-1 cell line (ATCC), a human leukemic T cell line or lymphocytes prepared from fresh human blood; assay: Cell viability (mitochondrial enzyme assay, MTT); assay type: cell-based; settings: after 16-24 hours incubation
Procedure: (§1) Jurkat E6-1 cell line (ATCC), a human leukemic T cell line or lymphocytes prepared from fresh human blood, are grown in complete culture medium consisting of RPMI-1640 (Mediatech) supplemented with 10% v/v fetal bovine serum (HyClone, Logen, Vt.), penicillin (100 units/mL), streptomycin ([…]), and 2 mM L-glutamine (GIBCO, Grand Island, N.Y.). The cells are grown to a concentration of between 1.2 to 1.8×10^6 cells/mL before use. The cells are then centrifuged at low speed and resuspended to a concentration of 1.25×10^6 cells/mL in fresh medium.
(§2) The compounds to be tested are dissolved in DMSO, and water is added to make a 50% DMSO/water solution. The compounds are then diluted in sterile water such that the DMSO concentrations are less then 0.05%. The cells at a concentration of 1.25×10^6 cells/mL are stimulated with phytohemagglutinin 10 μg/mL (PHA) and 10^-8 M phorbol ester (12-O-tetradecanoylphorbol 13-acetate: TPA), (Sigma, St. Louis, Mo.). The compounds are then added and the cells are plated in flat-bottom tissue culture plates (Falcon, Lincoln Park, N.J.), with 250,000 cells/well. Plates are then incubated at 37° C. under an atmosphere of 5% CO2.
(§3) After incubation (16-24 hours), the cells are assayed for IL-2 production and cell viability (MTT). IL-2 production is assayed utilizing a solid phase ELISA immunoassay, sold in kit form by R&D Systems, Inc., Minneapolis, Minn.
Cell viability is measured by the use of a mitochondrial enzyme assay. After removal of the supernatant for the IL-2 assay, Cell Titer 96 (a commercial solution of MTT available from Promega, Madison, Wis.) is added to the plates and incubated for 4 hours at 37° C. A solubilization solution is then added and incubated overnight. The plates are then read on an ELISA plate reader at a wavelength of 570 nm. Table II presents the results for the lnterleukin-2 assay, the cell viability assay and the ratio of cell viability/IL-2 inhibition.

[2] = system: IL-2; assay: Interleukin-2 assay (IL-2 production, ELISA, PHA/TPA-stimulated cells); assay type: cell-based; settings: Jurkat E6-1 cells or human blood lymphocytes, PHA 10 μg/mL + TPA 10^-8 M, 16-24 hours
Procedure: as §1, §2, §3

[3] = administered in conjunction with another immunosuppressive agent; WO 94/26265; cited from earlier work
[4] = system: adjuvant-induced arthritis; assay: Anti-inflammatory activity in the rat model of adjuvant-induced arthritis; assay type: in vivo, rat (male Wistar-Lewis); settings: 12 consecutive days, day 18
Procedure: Anti-inflammatory Activity in the Rat Model of Adjuvant-induced Arthritis
(§4) Following generally the procedure of Pearson and Wood, Arth. Rheum., 2, 44 (1959), the anti-inflammatory activity of the following compounds was determined in a rat model of adjuvant-induced arthritis. Male Wistar-Lewisrats (Mollegaard, Breeding Centre Ltd, BIBY, DK 4623 LI, SKENSVED, P.P. Box 28, DK) with a body weight between 160 g and 200 g are used. Freund's adjuvant (0.1 mL, 6 mg Mycobacterium smegmatis suspension per mL in heavy white paraffin oil, Merck/Darmstadt) was injected into the base of the tail. Between day 10 and day 14 of the test, immunopathological processes lead to chronic inflammation, especially in the form of arthritic and periarthritic symptoms in all parts of the body. The animals received standardized food Altromin-R (Altrogge, Lage) and had free access to water. The compounds were administered i.p. (suspension in a carboxymethyl cellulose solution in an injection volume of 0.5 mL/100 g body weight) on 12 consecutive days, starting with the day of the adjuvant injection. On day 1 and day 18 of the study, the volume to of both hind paws and the body weight were recorded, and in addition on day 18 the arthritis index. Cyclosporin A and Prednisolone were used as standard compounds. In addition, table IV presents the percent change in body weight (weight gain) between day 1 and day 21 of the above test.

[5] = assay type: in vivo, rat (male Wistar-Lewis); settings: weight gain between day 1 and day 21
Procedure: as §4

[6] = system: skin allograft rejection; settings: Yang, et al., 1992 and 1994; cited from earlier work
[7] = system: lymphocyte; settings: Yang, et al., 1992 and 1994; cited from earlier work

[5R-(5α,5aβ,6β,7α,9aβ,9bβ)]-3b,4,5,5a,6,7,9a,10,11-decahydro-5a,6,9a-trihydroxy-9b-methyl-7-(1-methylethyl)-5,7-epoxyphenanthro[1,2-c]furan-1(3H)-one [Example 3]
IC50 /MTT [1]: > 1,000 ng/mL | IC50 /IL-2 [2]: 500 ng/mL

C[C@@H](CO)[C@]12O[C@H]1[C@@H]1O[C@]13[C@]1(O[C@H]1C[C@H]1C4=C(CC[C@@]13C)C(=O)OC4)[C@@H]2O [16-hydroxytriptolide, 16-Hydroxytriptolide]
immunosuppressive activity relative to the sum of the effects of either agent alone [3]: increase in immunosuppressive activity relative to the sum of the effects

CC(C)[C@]1(O)C=C[C@@]2(O)[C@@]3(C)CCC4=C(COC4=O)C3CC[C@@]2(O)[C@@H]1O (stereo partly drawn) [Example 2, [5aR-(5aα,6α,7β,9aα,9bα)]-3b,4,5,5a,6,7,9a,9b,10,11-decahydro-5a,6,7,9a-tetrahydroxy-9b-methyl-7-(1-methylethyl)-phenanthro[1,2-c]furan-1(3H)-one]
% Inhibition ([4]; 2 mg/kg/day i.p.): 83% | % Inhibition ([4]; 4 mg/kg/day i.p.): 72% | IC50 /MTT [1]: 90 ng/mL (≈ 0.247 µM) | % Change in Body Weight ([5]; 2 mg/kg/day i.p.): 18.3% | % Change in Body Weight ([5]; 4 mg/kg/day i.p.): 24.1% | IC50 /IL-2 [2]: 14 ng/mL

[5aS-(5aα,5bα,8β,9α,9aR*,10aβ)]-4,5a,5b,8,9,10a,11,11a-octahydro-5b,8,9-trihydroxy-5a-methyl-8-(1-methylethyl)-1H-oxireno[8a,9]phenanthro[1,2-c]furan-3(5)-one [Example 1]
IC50 /MTT [1]: > 1,000 ng/mL | IC50 /IL-2 [2]: 1,000 ng/mL

CC(C)[C@]12O[C@H]1[C@@H]1O[C@]13[C@]1(O[C@H]1C[C@H]1C4=C(CC[C@@]13C)C(=O)OC4)[C@@H]2O [Triptolide, triptolide]
suppress skin allograft rejection [6]: suppress lymphocyte proliferation and skin allograft rejection | IC50 /MTT [1]: 5 ng/mL (≈ 0.0139 µM) | suppress lymphocyte proliferation [7]: suppress lymphocyte proliferation

Cyclosporin A [reference compound]
% Inhibition ([4]; 10 mg/kg/day i.p.): 100% | % Change in Body Weight ([5]; 10 mg/kg/day i.p.): 27.2%
